Consider three molecules from publication PMC12628652, “A Validated UPLC‐MS/MS Method for Monitoring Temozolomide and Perillyl Alcohol Metabolites in Biological Matrices: Insights From a Preclinical Pharmacokinetic Study” (Biomedical Chromatography, 2025).

In general, Cmax refers to the highest concentration seen after dosing. One may read the Tmax as the time from dosing to the highest level. As usually defined, the half-life is the time needed for the level to fall by half in the phase considered.

“Also recorded” adds a separate entry of the source.

A short description of data set [1]: Pharmacokinetic study in rats after single oral administration of POH and TMZ (plasma, UPLC-MS/MS). Conditions: rat plasma; for Cmax / Tmax / half-life / k el / AUC(0-t): male, Wistar; for AUC(0-t): read-out: AUC0–24h. It counts as in vivo, Male Wistar rats. On the procedure:
Approximately 200 μL of whole blood was collected from the tail vein of each rat. Samples were centrifuged at 3500 rpm for 10 min at 20°C to separate the plasma. Plasma samples were then subjected to liquid–liquid extraction with ACN. The mixture was centrifuged again at 3500 rpm for 10 min at 4°C. The resulting supernatant was filtered through hydrophobic 0.22 μm membranes and transferred to autosampler vials. A 2 μL aliquot of each sample was injected into the UPLC‐MS/MS system for analysis.
Thawed plasma samples (50 μL) were also prepared by protein precipitation. Each sample was mixed with 50 μL of IS solution and 900 μL of ACN, followed by centrifugation at 3500 rpm for 10 min at 20°C. The supernatants were filtered and analyzed as described. All dilutions were performed based on analyte concentration to ensure compliance with the method's validated dynamic range.
(§1) The pharmacokinetic and biodistribution study was conducted in accordance with ethical guidelines and approved by the Animal Ethics Committee of the Universidade Estadual do Centro‐Oeste, Brazil (Protocol No. 026/2023). Male Wistar rats (n = 6 for pharmacokinetics; n = 4 for biodistribution), weighing approximately 200 g, were housed under controlled environmental conditions (12 h light/dark cycle, 35% relative humidity, and temperature of 23°C ± 2°C). Animals had free access to food and water, which were withheld 10 h prior to drug administration and resumed 2 h afterward.
(§2) Each animal received a single oral dose of POH (47 mg/kg) and TMZ (2 mg/kg). For pharmacokinetic profiling, blood samples were collected via the tail vein into heparinized tubes at predefined time points: 0.5, 1, 2, 4, 8, 12, and 24 h post‐administration. For biodistribution analysis, a separate cohort of rats (n = 4) was sacrificed 4 h after dosing. Organs, including the brain, liver, lungs, kidneys, and spleen, were collected, homogenized, and stored at −20°C for subsequent quantification, as detailed in Section 3.2.
Pharmacokinetic parameters were calculated using non‐compartmental analysis with the PKSolver plugin for Microsoft Excel. The following parameters were determined: area under the plasma concentration–time curve from 0 to 24 h (AUC0–24h), maximum plasma concentration (Cmax), time to reach Cmax (tmax), elimination half‐life (t1/2), volume of distribution (VD), and total clearance (CL).

Data set [2] can be described thus: Biodistribution study in rats 4 h after single oral administration of POH and TMZ. It counts as in vivo, Male Wistar rats. Conditions: n = 4; for tissue concentrations (brain, liver, spleen, kidney, lung), in words: rats. On the procedure:
Following blood collection, animals were anesthetized and euthanized, and their organs (kidneys, liver, spleen, brain, and lungs) were promptly excised and stored at −20°C. Tissue samples were homogenized in PBS (pH 7.4) at a ratio of 1 part tissue to 5 parts buffer (w/v), using a mechanical homogenizer equipped with a 5 mm probe.
For chromatographic analysis, 200 μL of each tissue homogenate was mixed with 50 μL of IS solution (final IS concentration: 100 ng/mL) and 750 μL of ACN to reach a final volume of 1 mL. The mixture was centrifuged at 3500 rpm for 10 min at 20°C. The supernatant was collected, filtered through a 0.22 μm membrane, and transferred to injection vials for UPLC‐MS/MS analysis. When necessary, samples were diluted appropriately to ensure analyte concentrations fell within the validated linear range.
as §1, §2

The mark [3] stands for this setting: single oral dose POH 47 mg/kg and TMZ 2 mg/kg, n = 6.
[4] abbreviates: rat brain, 4 h after single oral dose POH 47 mg/kg and TMZ 2 mg/kg.
The mark [5] stands for this setting: 4 h after single oral dose POH 47 mg/kg and TMZ 2 mg/kg.

Turning to `Cn1nnc2c(C(N)=O)ncn2c1=O` [TMZ, Temozolomide], in data set [1] (setting [3]), the concentration peaked (Cmax) at 1450 ng/mL, the Tmax came to 1 h, the half-life was 18.4 h and the k el was 1.03e-05 s⁻¹. For the same molecule, in data set [1] (setting [3]), the AUC(0-t) was 8170 ng·h/mL, the CL amounted to 1.5 mL/min/kg and the Vd worked out at 1.75 L/kg. The same molecule yielded a concentration at 4 h in data set [2] (male, Wistar, rat brain, 4 h after single oral dose TMZ 2 mg/kg and POH 47 mg/kg) of roughly 1000 ng/mL. The “brain concentration / CNS penetration, in words” value in data set [2] (setting [4]) is given as “highest concentration in the brain”. In data set [2] (setting [5]), the “tissue concentrations (brain, liver, spleen, kidney, lung), in words” value (“tissue concentrations” for short) is on record as “highest tissue concentrations in all organs”.
For `NC(=O)c1[nH]cnc1N` [AIC, 5‐aminoimidazole‐4‐carboxamide], in data set [1] (setting [3]), the Tmax came to 1 h, the half-life is 18.5 h, the k el was 1.03e-05 s⁻¹ and the AUC(0-t) is 2190 ng·h/mL. In data set [1] (setting [3]), this molecule returned a CL of 3.83 mL/min/kg and a Vd of 6.09 L/kg. Besides, the “brain concentration / CNS penetration, in words” value in data set [2] (setting [4]) is on record as “lower brain concentrations”. The “tissue concentrations” value in data set [2] (setting [5]) is given as “lowest tissue concentrations”.
Regarding `C=C(C)[C@@H]1CC=C(C(=O)O)CC1` [PA, perillic acid], the time of peak concentration (Tmax) in data set [1] (single oral dose POH 47 mg/kg) is no more than 0.5 h. In data set [1] (setting [3]), the maximum concentration (Cmax) stood at 704 ng/mL, the Tmax was 0.5 h, the half-life is 19 h and the k el is 1e-05 s⁻¹. Moreover, in data set [1] (setting [3]), the AUC(0-t) came out at 2200 ng·h/mL, the CL is 3.83 mL/min/kg and the Vd was 6.26 L/kg. Moreover, the “brain concentration / CNS penetration, in words” value in data set [2] (setting [4]) is on record as “limited brain penetration; also recorded: lower brain concentrations”. The “hepatic accumulation, in words” value in data set [2] (rat liver, 4 h after single oral dose POH 47 mg/kg and TMZ 2 mg/kg) is “marked hepatic accumulation”. The “tissue concentrations” value in data set [2] (setting [5]) is “mainly distributed to liver and kidneys”.
